Measured values as given in the CheMixHub drug solubility set.

Assay: xn = mol fraction of the nth substance listed, in the solute-free solvent

O=C(O)c1ccc(-n2nc(-c3ccccc3O)nc2-c2ccccc2O)cc1 + CCO + CC#N
298.15 K
Conditions	solubility (g/100 g solution)
x2 = 0.09009	4.09
x2 = 0.1822	7.7
x2 = 0.2764	11.7
x2 = 0.3727	15.7
x2 = 0.4712	18.8
x2 = 0.572	21.2
x2 = 0.6752	21.4
x2 = 0.7809	19.3
x2 = 0.8891	15.9

O=CC(O)C(O)C(O)CO (stereo not drawn) + CCO + CCCCCC
solubility (g/100 g solution)
Conditions	x2 = 0.1	x2 = 0.2	x2 = 0.3	x2 = 0.4	x2 = 0.5	x2 = 0.6	x2 = 0.7	x2 = 0.8	x2 = 0.9
283.15 K	0.0708	0.0912	0.139	0.18	0.281	0.514	0.692	1.16	1.73
293.15 K	0.0738	0.111	0.171	0.268	0.425	0.715	1.07	1.56	2.52
303.15 K	0.0959	0.119	0.186	0.375	0.676	1.1	1.5	2.39	4.09
313.15 K	0.117	0.179	0.269	0.599	0.925	1.8	2.44	4.02	6.9
323.15 K	0.147	0.234	0.317	0.98	1.54	2.72	3.96	6.76	12.3

O=C(O)c1ccc(-n2nc(-c3ccccc3O)nc2-c2ccccc2O)cc1 + CCO + CO
298.15 K
Conditions	solubility (g/100 g solution)
x2 = 0.07174	12.7
x2 = 0.1481	12.9
x2 = 0.2296	12.8
x2 = 0.3168	12.7
x2 = 0.4102	12.5
x2 = 0.5106	12.2
x2 = 0.6188	11.9
x2 = 0.7356	11.5
x2 = 0.8623	11

O=CC(O)C(O)C(O)CO (stereo not drawn) + CCO + ClCCl
solubility (g/100 g solution)
Conditions	x2 = 0.1	x2 = 0.2	x2 = 0.3	x2 = 0.4	x2 = 0.5	x2 = 0.6	x2 = 0.7	x2 = 0.8	x2 = 0.9
283.15 K	0.222	0.374	0.669	1.02	1.41	1.64	1.88	2.05	2.24
288.15 K	0.227	0.458	0.813	1.26	1.81	2.12	2.32	2.57	2.85
293.15 K	0.254	0.522	1.1	1.55	2.15	2.55	2.96	3.23	3.55
298.15 K	0.264	0.645	1.28	1.9	2.77	3.18	3.69	4.2	4.58
303.15 K	0.325	0.776	1.43	2.28	3.27	4.09	4.72	5.4	5.99

O=c1cc(-c2ccccc2)oc2cc(O)c(O)c(O)c12 + CCO + O
solubility (g/100 g solution)
Conditions	283.15 K	288.15 K	293.15 K	298.15 K	303.15 K	308.15 K	313.15 K	318.15 K	323.15 K	328.15 K
x2 = 0.2	0.0427	0.0499	0.0671	0.0809	0.0932	0.105	0.128	0.157	0.179	0.228
x2 = 0.4	0.194	0.221	0.262	0.314	0.372	0.444	0.554	0.643	0.73	0.887
x2 = 0.6	0.413	0.455	0.52	0.587	0.663	0.795	0.919	1.07	1.23	1.46
x2 = 0.8	0.474	0.525	0.574	0.634	0.728	0.831	0.939	1.08	1.27	1.51
